These results are taken from ChEMBL document CHEMBL4261613, “Discovery of a potent orally bioavailable retinoic acid receptor-related orphan receptor-gamma-t (RORγt) inhibitor, S18-000003” (Bioorg Med Chem Lett, 2018).

The term AUC denotes the area under the concentration-time curve, a measure of exposure. Low values mean less exposure, high ones more exposure. In general, IC50 refers to the midpoint of a concentration-inhibition curve. The Cmax is the highest concentration seen after dosing. What is called clearance is the rate of elimination divided by the concentration. Read a low clearance as a low capacity for elimination. For orientation: fraction unbound means the share of the substance not bound to proteins or other matrix. A word on the solubility (thermodynamic): it is the concentration in solution at equilibrium with solid. For orientation: EC50 means the concentration that produces a half-maximal response. The Tmax is the time from dosing to the highest level. For orientation: bioavailability means dose-corrected exposure relative to a reference, in per cent. A lower bioavailability goes with poor availability.

Series [1] in a line: AUC in rat at 1 mg/kg, po. Format: ADME, organism-based. Conditions: in vivo.
The target in series [2] is T1, Nuclear receptor ROR-gamma (Mus musculus) (UniProt P51450).
T1 sequence (whole entry): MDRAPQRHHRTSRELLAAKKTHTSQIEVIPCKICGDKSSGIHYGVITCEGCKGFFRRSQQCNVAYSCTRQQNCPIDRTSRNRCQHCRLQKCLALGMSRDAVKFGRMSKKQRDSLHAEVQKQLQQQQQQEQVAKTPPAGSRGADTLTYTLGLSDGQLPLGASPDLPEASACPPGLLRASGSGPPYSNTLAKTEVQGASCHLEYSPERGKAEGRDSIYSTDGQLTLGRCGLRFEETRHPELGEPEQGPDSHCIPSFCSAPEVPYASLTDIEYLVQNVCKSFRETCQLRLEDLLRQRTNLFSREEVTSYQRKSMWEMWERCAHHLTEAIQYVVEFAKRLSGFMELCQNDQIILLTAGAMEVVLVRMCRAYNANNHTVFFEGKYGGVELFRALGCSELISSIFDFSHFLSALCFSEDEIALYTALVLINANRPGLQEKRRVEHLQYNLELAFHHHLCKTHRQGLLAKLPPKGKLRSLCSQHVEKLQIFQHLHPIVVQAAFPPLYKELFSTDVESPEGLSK
As to the kind of experiment: (§1) Transrepression of recombinant mouse GAL4-DBD fused RORgammat LBD expressed in HEK293 cells after 20 hrs by luciferase reporter gene assay. The format is cell-based. For orientation: Reporter assays use an easily measured gene product as a stand-in for the process of interest.

For series [3], the target named is T2, Nuclear receptor ROR-gamma (Mus musculus, UniProt P51450).
T2 sequence (P51450 whole entry): T1 sequence (whole entry)
The series is described as §1. The format is cell-based.

Series [4] has as its target T3, Nuclear receptor ROR-alpha (Homo sapiens, UniProt P35398).
T3 sequence (P35398 whole entry): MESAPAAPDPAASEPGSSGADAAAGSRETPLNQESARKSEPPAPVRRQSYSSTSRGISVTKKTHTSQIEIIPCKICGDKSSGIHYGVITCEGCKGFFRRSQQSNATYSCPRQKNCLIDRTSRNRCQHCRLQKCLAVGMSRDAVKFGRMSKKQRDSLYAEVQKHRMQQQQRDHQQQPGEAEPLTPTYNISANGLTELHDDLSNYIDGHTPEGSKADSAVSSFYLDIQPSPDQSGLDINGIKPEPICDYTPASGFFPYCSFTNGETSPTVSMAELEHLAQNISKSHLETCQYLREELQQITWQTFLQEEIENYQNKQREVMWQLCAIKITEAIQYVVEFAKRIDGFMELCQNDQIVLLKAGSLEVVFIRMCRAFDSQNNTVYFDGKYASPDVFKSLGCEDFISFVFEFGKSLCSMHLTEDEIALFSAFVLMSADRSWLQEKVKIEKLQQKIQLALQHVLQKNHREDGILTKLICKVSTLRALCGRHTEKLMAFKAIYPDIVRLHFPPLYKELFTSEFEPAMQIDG
The series can be described thus: Displacement of [3H]T0901317 from recombinant human GST-fused RORalpha LBD after 1 to 4 hrs by microbeta scintillation counting method. For orientation: In a radioligand displacement assay an active substance lowers the binding of a labelled ligand.

Series [5] can be described thus: Volume of distribution at steady state in rat at 0.5 mg/kg, iv. Format: ADME, organism-based. Conditions: in vivo, read-out: Vdss.
The nature of series [6]: Stability in human liver microsomes assessed as parent compound remaining after 2 hrs by LC-MS/MS analysis. The format is ADME, microsome. Conditions: read-out: Stability. On the technique in general: Liver microsomes are a subcellular fraction often used to study metabolism.
Series [7] deals with T2, Nuclear receptor ROR-gamma. As to the kind of experiment: Transrepression of RORgammat in anti-CD3/CD28 stimulated C57BL/6 mouse CD4-positive T cells assessed as suppression of T cell differentiation to Th17 cells by measuring reduction in IL-17A level after 4 days by ELISA.
Series [8] is described as follows: AUC in rat at 0.5 mg/kg, iv. The format is ADME, organism-based. Conditions: in vivo.
Series [9] can be described thus: Cmax in rat at 1 mg/kg, po. Format: ADME, organism-based. Further details: dose 1 mg/kg, route oral. To be noted: in vivo.
The nature of series [10]: Total clearance in rat at 0.5 mg/kg, iv. Format: ADME, organism-based. Conditions: in vivo.
Series [11] deals with T4, Nuclear receptor ROR-beta (Homo sapiens, UniProt Q92753).
T4 sequence (Q92753 whole entry): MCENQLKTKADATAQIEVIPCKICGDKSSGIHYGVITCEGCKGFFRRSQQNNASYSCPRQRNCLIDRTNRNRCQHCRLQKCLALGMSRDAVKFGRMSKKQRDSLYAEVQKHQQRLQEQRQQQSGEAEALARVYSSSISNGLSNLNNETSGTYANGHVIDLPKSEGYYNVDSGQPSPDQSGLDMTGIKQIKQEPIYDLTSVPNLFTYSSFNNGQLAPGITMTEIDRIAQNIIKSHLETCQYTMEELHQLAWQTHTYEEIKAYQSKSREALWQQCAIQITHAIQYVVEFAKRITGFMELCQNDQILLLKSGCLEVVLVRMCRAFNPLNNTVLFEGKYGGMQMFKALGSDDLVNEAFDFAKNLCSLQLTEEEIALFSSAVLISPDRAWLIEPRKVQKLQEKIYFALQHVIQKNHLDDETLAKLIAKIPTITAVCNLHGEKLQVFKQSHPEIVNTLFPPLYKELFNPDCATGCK
The series can be described thus: Transrepression of recombinant human GAL4-DBD fused RORbeta LBD expressed in HEK293 cells after 20 hrs by luciferase reporter gene assay. Format: cell-based.

The nature of series [12]: Fraction unbound in rat plasma at 1 mg/kg, po. Format: ADME, organism-based.
Series [13] can be described thus: Stability in rat liver microsomes assessed as parent compound remaining after 2 hrs by LC-MS/MS analysis. Format: ADME, microsome. Conditions: read-out: Stability.
Series [14] is described as follows: Solubility of the compound in KH2PO4/Na2HPO4 buffer at pH 6.8 by shake-flask method. Format: physicochemical.
Series [15] addresses T5, Oxysterols receptor LXR-alpha (Homo sapiens, UniProt Q13133).
T5 sequence (Q13133 whole entry): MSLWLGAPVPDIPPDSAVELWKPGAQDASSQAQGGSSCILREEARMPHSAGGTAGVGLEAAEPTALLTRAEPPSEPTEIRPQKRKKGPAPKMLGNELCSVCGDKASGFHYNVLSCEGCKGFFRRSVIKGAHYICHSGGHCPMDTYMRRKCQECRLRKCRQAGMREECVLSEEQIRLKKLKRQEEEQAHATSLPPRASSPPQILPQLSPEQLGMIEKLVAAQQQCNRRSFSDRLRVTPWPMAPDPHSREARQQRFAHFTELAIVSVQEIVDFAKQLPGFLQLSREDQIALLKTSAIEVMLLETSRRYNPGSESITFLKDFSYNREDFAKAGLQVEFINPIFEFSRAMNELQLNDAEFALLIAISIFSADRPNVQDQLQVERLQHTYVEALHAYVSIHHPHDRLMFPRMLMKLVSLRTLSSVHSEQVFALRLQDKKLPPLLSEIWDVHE
As to the kind of experiment: Transrepression of recombinant human GAL4-DBD fused LXRalpha LBD expressed in HEK293 cells after 20 hrs by luciferase reporter gene assay. The format is cell-based.

A short description of series [16]: Tmax in rat at 1 mg/kg, po. Conditions: in vivo. Format: ADME, organism-based.
Series [17] is described as follows: Oral bioavailability in rat at 1 mg/kg. To be noted: in vivo. The format is ADME, organism-based.

≈ marks a conversion by molar mass, not a printed value. A value given as a limit tells only on which side of the number the result lay.

Consider `CCS(=O)(=O)c1ccc(CC(=O)Nc2ccc(C(C)(C)C(=O)Nc3ccc(F)cc3F)c(F)c2)cc1`, for which the AUC in [1] came out at 2110 ng·h/mL; in series [8] it was 1930 ng·h/mL. For the same compound, in [2], the Efficacy is 85%. Moreover, the IC50 was 340 nM in series [3], above 10 µM in series [4], 200 nM in [7] and above 10 µM in series [11]. Besides, the Vd in series [5] came to 1.1 L/kg. Besides, the remaining at 2 h in series [6] is 95%; in [13], 89%. The peak level in series [9] (Cmax) was 185 ng/mL. Also, the clearance in series [10] worked out at 4.33 mL/min/kg. The fraction unbound in series [12] was determined as 0.034. The same compound registered a thermodynamic solubility in series [14] of 25 µM (≈ 13 µg/mL). In addition, the EC50 in series [15] is above 30 µM. In addition, in series [16], the Tmax was 4 h. The bioavailability in series [17] stood at 54.5%.
On to `CCS(=O)(=O)c1ccc(CC(=O)Nc2ccc(C(C)(C)C(=O)Nc3ccc(F)cc3)c(F)c2)cc1`, for which the AUC in series [1] worked out at 786 ng·h/mL; in [8], 986 ng·h/mL. Also, the Efficacy in [2] was 85%. Moreover, the IC50 in series [3] was 250 nM; in series [4] it was above 10 µM; in [7], 420 nM; in series [11], above 10 µM. Also, the Vd in series [5] came out at 1.7 L/kg. The figures for the remaining at 2 h in [6] and in series [13] were 63% and 77%, respectively. For the same compound, in series [9], the Cmax stood at 85.3 ng/mL. Besides, the clearance in series [10] was determined as 8.45 mL/min/kg. In addition, the fraction unbound in [12] worked out at 0.036. For the same compound, the thermodynamic solubility in series [14] was found to be 16 µM (≈ 8.01 µg/mL). For the same compound, the EC50 in [15] was above 30 µM. The Tmax in series [16] is 2.5 h. The compound further showed a bioavailability in [17] of 39.9%.
For `CCS(=O)(=O)c1ccc(CC(=O)Nc2ccc(C(C)(C)C(=O)Nc3cc(C#N)ccn3)c(F)c2)cc1`, the exposure (AUC) in [1] is 218 ng·h/mL; in [8], 556 ng·h/mL. Moreover, the Efficacy in series [2] was determined as 88%. Besides, the IC50 in series [3] is 74 nM; in series [4], above 10 µM; in [7] it was 68 nM; in [11] it was above 10 µM. The Vd in [5] was determined as 3.3 L/kg. Further, the remaining at 2 h in series [6] came out at 82%; in [13], 71%. In addition, the Cmax in series [9] amounted to 33.3 ng/mL. Also, the clearance in series [10] was 15 mL/min/kg. In series [12], this compound registered a fraction unbound of 0.051. The solubility (thermodynamic) in series [14] was found to be 9 µM (≈ 4.58 µg/mL). Moreover, the EC50 in series [15] was above 30 µM. Moreover, in [16], the Tmax was determined as 1 h. Besides, the bioavailability in series [17] worked out at 19.6%.
